From the supplement of paper PMC10307832

Legend:
Experiment in all cases: relative viability (nuclei count vs DMSO), 5 days (fraction); higher = more cells survive
A-427 = tested on: A-427
Outline: (§1)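 Lung cancer cell lines in 1536-well plates were dosed by pin tool the day after seeding, either with one drug alone or with a fixed anchor-drug dose plus five library-drug doses (not always all listed) in √10 steps. After 5 days, cells were fixed and their nuclei stained in one step (final 0.05% Triton X-100, 1% formaldehyde, 1 ug/ml Hoechst), then counted on 4× images. Relative viability is the nuclei count in treated wells divided by that in vehicle wells. Values are medians of duplicate plates.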

NCI-H2023 = tested on: NCI-H2023
Outline: as §1

LC-2-ad = tested on: LC-2-ad
Outline: as §1

ABC-1 = tested on: ABC-1
Outline: as §1

NCI-H596 = tested on: NCI-H596
Outline: as §1

NCI-H727 = tested on: NCI-H727
Outline: as §1

PC-3 [JPC-3] = tested on: PC-3 [JPC-3]
Outline: as §1

NCI-H520 = tested on: NCI-H520
Outline: as §1

NCI-H650 = tested on: NCI-H650
Outline: as §1

201T = tested on: 201T
Outline: as §1

NCI-H441 = tested on: NCI-H441
Outline: as §1

NCI-H1915 = tested on: NCI-H1915
Outline: as §1

NCI-H460 = tested on: NCI-H460
Outline: as §1

NCI-H661 = tested on: NCI-H661
Outline: as §1

H3255 = tested on: H3255
Outline: as §1

BEN = tested on: BEN
Outline: as §1

NCI-H1944 = tested on: NCI-H1944
Outline: as §1

NCI-H2087 = tested on: NCI-H2087
Outline: as §1

NCI-H1650 = tested on: NCI-H1650
Outline: as §1

NCI-H1651 = tested on: NCI-H1651
Outline: as §1

LCLC-97TM1 = tested on: LCLC-97TM1
Outline: as §1

CCN(CC)CCCCNc1ncc2cc(-c3cc(OC)cc(OC)c3)c(NC(=O)NC(C)(C)C)nc2n1 + Nc1ncn([C@H]2C[C@H](O)[C@@H](CO)O2)c(=O)n1 [Decitabine] (partner 2 µM)
relative viability (A-427; first compound 0.01 µM): 0.626
relative viability (A-427; first compound 0.03162 µM): 0.506
relative viability (A-427; first compound 0.1 µM): 0.518
relative viability (A-427; first compound 0.3162 µM): 0.548
relative viability (A-427; first compound 1 µM): 0.524
relative viability (NCI-H2023; first compound 0.01 µM): 0.221
relative viability (NCI-H2023; first compound 0.03162 µM): 0.268
relative viability (NCI-H2023; first compound 0.1 µM): 0.232
relative viability (NCI-H2023; first compound 0.3162 µM): 0.236
relative viability (NCI-H2023; first compound 1 µM): 0.206
relative viability (LC-2-ad; first compound 0.01 µM): 0.827
relative viability (LC-2-ad; first compound 0.03162 µM): 0.81
relative viability (LC-2-ad; first compound 0.1 µM): 0.823
relative viability (LC-2-ad; first compound 0.3162 µM): 0.852
relative viability (LC-2-ad; first compound 1 µM): 0.775
relative viability (ABC-1; first compound 0.03162 µM): 1.17
relative viability (ABC-1; first compound 0.1 µM): 1.32
relative viability (ABC-1; first compound 0.3162 µM): 1.06
relative viability (ABC-1; first compound 1 µM): 1.05
relative viability (NCI-H596; first compound 0.03162 µM): 1.15
relative viability (NCI-H596; first compound 0.1 µM): 1.03
relative viability (NCI-H596; first compound 0.3162 µM): 1.01
relative viability (NCI-H596; first compound 1 µM): 0.893
relative viability (NCI-H727; first compound 0.01 µM): 0.752
relative viability (NCI-H727; first compound 0.03162 µM): 0.871
relative viability (NCI-H727; first compound 0.1 µM): 0.871
relative viability (NCI-H727; first compound 0.3162 µM): 1.09
relative viability (NCI-H727; first compound 1 µM): 0.717
relative viability (PC-3 [JPC-3]; first compound 0.03162 µM): 0.708
relative viability (PC-3 [JPC-3]; first compound 0.1 µM): 0.928
relative viability (PC-3 [JPC-3]; first compound 0.3162 µM): 0.851
relative viability (PC-3 [JPC-3]; first compound 1 µM): 0.804
relative viability (NCI-H520; first compound 0.01 µM): 0.51
relative viability (NCI-H520; first compound 0.03162 µM): 0.466
relative viability (NCI-H520; first compound 0.1 µM): 0.501
relative viability (NCI-H520; first compound 0.3162 µM): 0.313
relative viability (NCI-H520; first compound 1 µM): 0.202
relative viability (NCI-H650; first compound 0.01 µM): 0.14
relative viability (NCI-H650; first compound 0.03162 µM): 0.272
relative viability (NCI-H650; first compound 0.1 µM): 0.33
relative viability (NCI-H650; first compound 0.3162 µM): 0.332
relative viability (NCI-H650; first compound 1 µM): 0.326
relative viability (201T; first compound 0.01 µM): 0.864
relative viability (201T; first compound 0.03162 µM): 0.847
relative viability (201T; first compound 0.1 µM): 0.86
relative viability (201T; first compound 0.3162 µM): 0.857
relative viability (201T; first compound 1 µM): 0.83
relative viability (NCI-H441; first compound 0.01 µM): 0.118
relative viability (NCI-H441; first compound 0.03162 µM): 0.265
relative viability (NCI-H441; first compound 0.1 µM): 0.242
relative viability (NCI-H441; first compound 0.3162 µM): 0.261
relative viability (NCI-H441; first compound 1 µM): 0.244
relative viability (NCI-H1915; first compound 0.01 µM): 0.24
relative viability (NCI-H1915; first compound 0.03162 µM): 0.243
relative viability (NCI-H1915; first compound 0.1 µM): 0.256
relative viability (NCI-H1915; first compound 0.3162 µM): 0.242
relative viability (NCI-H1915; first compound 1 µM): 0.266
relative viability (NCI-H460; first compound 0.01 µM): 0.505
relative viability (NCI-H460; first compound 0.03162 µM): 0.591
relative viability (NCI-H460; first compound 0.1 µM): 0.645
relative viability (NCI-H460; first compound 0.3162 µM): 0.584
relative viability (NCI-H460; first compound 1 µM): 0.412
relative viability (NCI-H661; first compound 0.01 µM): 0.534
relative viability (NCI-H661; first compound 0.03162 µM): 0.529
relative viability (NCI-H661; first compound 0.1 µM): 0.572
relative viability (NCI-H661; first compound 0.3162 µM): 0.573
relative viability (NCI-H661; first compound 1 µM): 0.455
relative viability (H3255; first compound 0.01 µM): 0.453
relative viability (H3255; first compound 0.1 µM): 0.65
relative viability (H3255; first compound 0.3162 µM): 0.712
relative viability (H3255; first compound 1 µM): 0.448
relative viability (BEN; first compound 0.01 µM): 0.691
relative viability (BEN; first compound 0.03162 µM): 0.728
relative viability (BEN; first compound 0.1 µM): 0.808
relative viability (BEN; first compound 0.3162 µM): 0.797
relative viability (BEN; first compound 1 µM): 0.572
relative viability (NCI-H1944; first compound 0.01 µM): 0.489
relative viability (NCI-H1944; first compound 0.03162 µM): 0.435
relative viability (NCI-H1944; first compound 0.1 µM): 0.427
relative viability (NCI-H1944; first compound 0.3162 µM): 0.489
relative viability (NCI-H1944; first compound 1 µM): 0.477
relative viability (NCI-H2087; first compound 0.01 µM): 0.314
relative viability (NCI-H2087; first compound 0.03162 µM): 0.29
relative viability (NCI-H2087; first compound 0.1 µM): 0.302
relative viability (NCI-H2087; first compound 0.3162 µM): 0.284
relative viability (NCI-H2087; first compound 1 µM): 0.317
relative viability (NCI-H1650; first compound 0.01 µM): 0.398
relative viability (NCI-H1650; first compound 0.03162 µM): 0.381
relative viability (NCI-H1650; first compound 0.1 µM): 0.397
relative viability (NCI-H1650; first compound 0.3162 µM): 0.368
relative viability (NCI-H1650; first compound 1 µM): 0.384
relative viability (NCI-H1651; first compound 0.01 µM): 0.625
relative viability (NCI-H1651; first compound 0.03162 µM): 0.68
relative viability (NCI-H1651; first compound 0.1 µM): 0.63
relative viability (NCI-H1651; first compound 0.3162 µM): 0.75
relative viability (NCI-H1651; first compound 1 µM): 0.589
relative viability (LCLC-97TM1; first compound 0.01 µM): 0.269
relative viability (LCLC-97TM1; first compound 0.03162 µM): 0.251
relative viability (LCLC-97TM1; first compound 0.1 µM): 0.321
relative viability (LCLC-97TM1; first compound 0.3162 µM): 0.272
relative viability (LCLC-97TM1; first compound 1 µM): 0.255
